Data reported in patent US11969425B2, “Inhibitor of indoleamine-2,3-dioxygenase (IDO)” (InventisBio LLC, priority 2016, dated 2024).

How the values were obtained:
[1] = tested on: kynurenine production in SKOV-3 cells; experiment: Inhibition of kynurenine production in SKOV-3 cells; format: cell-based, human; details: Homo sapiens, SK-OV-3, FIG. 1
Description: The effect of compounds described herein on the inhibition of kynurenine production in HeLa cells (derived from human cervical cancer) was determined. HeLa cells were seeded into a 96-well culture plate at a density of 5×10^3 per well in RPMI1640/phenol red free media (from GIBCO) with 2 mM L-glutamine and 10% fetal bovine serum (FBS, from GIBCO) and grown overnight in a 37° C. incubator with 5% CO2. Twenty-four hours later, human IFN-γ (from GIBCO) (final concentration 50 ng/mL) and test compound solutions (serially diluted to different wells) were added to each well with a final volume of 200 uL per well. Forty-eight hours after incubation with compounds, 140 uL supernatant was taken from each well and was transferred to a new 96-well plate. Ten microliters of 6.1 N trichloroacetic acid were added into each well, mixed and incubated at 50° C. for 30 minutes. […] The yellow color derived from kynurenine was measured at 480 nm using a SPECTRAmax i3 reader. Each compound concentration was done in triplicates and compound IC50 value was calculated using nonlinear regression using Graphpad Prism 5.0.
The effect of compounds described herein on the inhibition of kynurenine production in SKOV-3 cells (derived from human ovarian cancer) was determined using a similar experimental procedure as described in Example A. Exemplary results are shown in FIG. 1. […]

[2] = tested on: pooled human hepatocytes; experiment: Human hepatocyte clearance study; format: in vitro ADME; details: pooled human hepatocytes, 120 min
Description: (§1) The in vitro human hepatocyte clearance of compounds described here was studied using pooled human hepatocytes purchased from BioreclamationIVT (Westbury, NY, Cat #X008001, Lot #TQJ). The assay was conducted according to manufacture's instruction. Briefly, 10 mM stock solutions of test compounds and positive control (Verapamil) were prepared in 100% DMSO. Thawing media (50 mL) used in the study consists of: 31 mLWilliams E medium (GIBCO Cat #12551-032); 15 mL isotonic percoll (GE Healthcare Cat #17-0891-09); 500 uL 100XGlutaMax (GIBCO Cat #35050); 750 uL HEPES (GIBCO Cat #15630-080); 2.5 mL FBS (Corning Cat #35-076*CVR); 50 uL human insulin (GIBCO Cat #12585-014) and 5 uL dexamethasone (NICPBP). Incubation media is made of Williams E medium supplemented with 1xGlutaMax. Both thawing medium and incubation medium (serum-free) were placed in a 37° C. water bath for at least 15 minutes prior to use. Compound stock solutions were diluted to 100 μM by combining 198 μL of 50% acetonitrile/50% water and 2 μL of 10 mM stock solution. Verapamil was use as positive control in the assay. Vials of cryopreserved hepatocytes were removed from storage and thawed in a 37° C. water bath with gentle shaking. Contents of the vial were poured into the 50 mL thawing medium conical tube. Vials were centrifuged at 100 g for 10 minutes at room temperature. Thawing medium was aspirated and hepatocytes were re-suspended with serum-free incubation medium to yield ˜1.5×10^6 cells/mL. Hepatocyte viability and density were counted using a Trypan Blue exclusion, and then cells were diluted with serum-free incubation medium to a working cell density of 0.5×10^6 viable cells/mL. Then, a portion of the hepatocytes at 0.5×10^6 viable cells/mL was boiled for 5 minutes prior to adding to the plate as negative control to eliminate the enzymatic activity so that little or no substrate turnover should be observed. The boiled hepatocytes were used to prepare negative samples. Aliquots of 198 μL hepatocytes were dispensed into each well of a 96-well non-coated plate. The plate was placed in the incubator on an orbital shaker at 500 rpm for approximately 10 minutes. Aliquots of 2 μL of the 100 μM test compound or positive control were added into respective wells of the non-coated 96-well plate to start the reaction. This assay was performed in duplicate. The plate was incubated in the incubator on an orbital shaker at 500 rpm for the designated time points. Twenty-five microliter of contents were transferred and mixed with 6 volumes (150 μL) of cold acetonitrile with IS (200 nM imipramine, 200 nM labetalol and 200 nM diclofenac) to terminate the reaction at time points of 0, 15, 30, 60, 90 and 120 minutes. Samples were centrifuged at 3,220 g for 25 minutes and aliquots of 150 μL of the supernatants were used for LC-MS/MS analysis. For data analysis, all calculations were carried out using Microsoft Excel. Peak areas were determined from extracted ion chromatograms. The in vitro half-life (t1/2) of parent compound was determined by regression analysis of the percent parent disappearance vs. time curve. The in vitro half-life (in vitro t1/2) was determined from the slope value: in vitro t1/2=0.693/k. […] Scaling factors for in vivo intrinsic clearance prediction using human hepatocytes are listed as: liver weight (g liver/kg body weight): 25.7; hepatocyte concentration (10^6 cells/g liver): 99; scaling factor: 2544.3.

[3] = Human hepatocyte clearance study; format: in vitro ADME; details: pooled cryopreserved human hepatocytes (suspension)
Description: as §1

[4] = tested on: kynurenine production in HeLa cells; experiment: Inhibition of kynurenine production in HeLa cells; format: cell-based, human; details: Homo sapiens, HeLa, 48 h, HeLa cells, human IFN-γ 50 ng/mL, kynurenine read at 480 nm, read-out: IC50
[5] = tested on: LPS-induced plasma kynurenine; experiment: Inhibition of LPS induced plasma kynurenine in mice; format: in vivo; details: Balb/c mouse, 5 mg/kg LPS i.p. plus oral 30 mpk
Description: The effect of compounds described herein on the inhibition of lipopolysaccharide (LPS)-induced plasma kynurenine in mouse was determined. Female Balb/c mouse (˜20 g, obtained from Vital River Laboratory Animal Co. LTD) was treated with either vehicle control (saline) or 5 mg/kg LPS via intraperitoneal injection, followed by an oral dose of 30 mpk compound 9 within 5 minutes of LPS injection. Blood samples (500 uL) were collected into K2EDTA tube via retro-orbital puncture at 12 and 24 hrs (terminal bleeding) after treatment with LPS or LPS plus compound 9. For vehicle control group, plasma samples were collected at 24 hour post dose. Blood samples were put on ice after collection and centrifuged at 4° C. (2000 g, 5 minutes) immediately after collection to obtain the plasma. Plasma kynurenine level was determined by LC-MS/MS analysis. Each group contains 3 mice and mean plasma kynurenine level was plotted in FIG. 2.

IC50 [1]: 7.4 nM | Human Hepatocyte Remaining Percentage @ 120 min [2]: 79 | CLint scaled at 1 µM ([3]; human, scaled up from in vitro t1/2, scaling factor 2544.3, read-out: Human Scale-up Clint): 10 mL/min/kg | hepatocyte CLint at 1 µM ([3]; pooled human hepatocytes, read-out: Human In vitro Clint (μL/min/10^6 cells)): 3 µL/min/1e6 cells | half-life at 1 µM ([3]; pooled human hepatocytes, read-out: Human In vitro T1/2): 7.05 h | IC50 [4]: 2.2 nM
SMILES: CC(C)CN(CC(C)C)c1ccc(C2(C(=O)O)CCCC2)cc1NC(=O)Nc1ccc(F)cc1F [Compound 9, 1-[4-[bis(2-methylpropyl)amino]-3-[[(2,4-difluorophenyl)carbamoyl]amino]phenyl]cyclopentane-1-carboxylic acid]
drop of plasma kynurenine compared to the LPS treatment alone ([5]; 12 hour time point): 72% | drop of plasma kynurenine compared to the LPS treatment alone ([5]; 24 hour time point): 85%
